This note sets out measurements from ChEMBL document CHEMBL1150684, “New cytotoxic lupane triterpenoids from the twigs of Coussarea paniculata” (J Nat Prod, 2003).

The assay deals with A2780. Kind of assay: Cytotoxicity against human A2780 cells. The class given is functional, cell-based.

Values after ≈ are worked out from the molar mass of the structure shown.

With `C=C(C)[C@@H]1CC[C@]2(C=O)CC[C@]3(C)[C@H](CC[C@@H]4[C@@]5(C)CC[C@@H](O)C(C)(C)[C@@H]5CC[C@]43C)[C@@H]12`, the IC50 was at least 20 µg/mL. Molecule `CC1(C)CC[C@]2(C(=O)O)CC[C@]3(C)C(=CC[C@@H]4[C@@]5(C)CC[C@H](O)C(C)(C)[C@@H]5CC[C@]43C)[C@@H]2C1` [OLEANOLIC_ACID] displayed an IC50 of at least 20 µg/mL. The result for `C[C@H]1[C@H](C)CC[C@]2(C(=O)O)CC[C@]3(C)C(=CC[C@@H]4[C@@]5(C)CC[C@H](O)C(C)(C)[C@@H]5CC[C@]43C)[C@H]12` [URSOLIC ACID] reads at least 20 µg/mL. The result for `C=C(C)[C@@H]1CC[C@]2(C)CC[C@]3(C)[C@H](CC[C@@H]4[C@@]5(C)CC[C@H](OC(C)=O)C(C)(C)[C@@H]5CC[C@]43C)[C@@H]12` [LUPENYL ACETATE] reads 16 µg/mL. `C=C(C)[C@@H]1CC[C@]2(C(=O)O)CC[C@]3(C)[C@H](CC[C@@H]4[C@@]5(C)CCCC(C)(C)[C@@H]5CC[C@]43C)[C@@H]12` had an IC50 of 17.4 µg/mL (≈ 39.5 µM).

In turn, `C=C(C)[C@@H]1CC[C@]2(COC(C)=O)CC[C@]3(C)[C@H](CC[C@@H]4[C@@]5(C)CC[C@H](OC(C)=O)C(C)(C)[C@@H]5CC[C@]43C)[C@@H]12` [BETULIN DIACETATE] displayed an IC50 of at least 20 µg/mL. The same measure for `C=C(C)[C@@H]1CC[C@]2(C(=O)O)CC[C@]3(C)[C@H](CC[C@@H]4[C@@]5(C)CC[C@H](O)C(C)(C)[C@@H]5CC[C@]43C)[C@@H]12` [BETULINIC ACID]: at least 20 µg/mL; for `C=C(C)[C@@H]1CC[C@]2(C)CC[C@]3(C)[C@H](CC[C@@H]4[C@@]5(C)CC[C@H](O)C(C)(C)[C@@H]5CC[C@]43C)[C@@H]12` [LUPEOL]: at least 20 µg/mL; for `C=C(C)[C@@H]1CC[C@]2(C)CC[C@]3(C)[C@H](C[C@@H](O)[C@@H]4[C@]56CC[C@H](OC5=O)C(C)(C)[C@@H]6CC[C@]43C)[C@@H]12`: 18 µg/mL (≈ 39.6 µM). The same measure for `C=C(C)[C@@H]1CC[C@]2(C)CC[C@]3(C)[C@H](CC[C@@H]4[C@@]5(COC(C)=O)CC[C@H](OC(C)=O)C(C)(C)[C@@H]5CC[C@]43C)[C@@H]12`: 9.6 µg/mL (≈ 18.2 µM); for `C=C(C)[C@@H]1CC[C@]2(C(=O)O)CC[C@]3(C)[C@H](CC[C@@H]4[C@@]5(C)CC[C@@H](O)C(C)(C)[C@@H]5CC[C@]43C)[C@@H]12` [EPIBETULINIC ACID]: at least 20 µg/mL.

The IC50 is the concentration needed to halve the response being measured. High values mean lower potency, low ones higher potency.
